The target of this assay is T1, SHP2 (Homo sapiens, UniProt Q06124).
T1 construct: endogenous in cells; host or cells: MV411 (MV4-11) leukemia cells
T1 sequence (Q06124 1-593): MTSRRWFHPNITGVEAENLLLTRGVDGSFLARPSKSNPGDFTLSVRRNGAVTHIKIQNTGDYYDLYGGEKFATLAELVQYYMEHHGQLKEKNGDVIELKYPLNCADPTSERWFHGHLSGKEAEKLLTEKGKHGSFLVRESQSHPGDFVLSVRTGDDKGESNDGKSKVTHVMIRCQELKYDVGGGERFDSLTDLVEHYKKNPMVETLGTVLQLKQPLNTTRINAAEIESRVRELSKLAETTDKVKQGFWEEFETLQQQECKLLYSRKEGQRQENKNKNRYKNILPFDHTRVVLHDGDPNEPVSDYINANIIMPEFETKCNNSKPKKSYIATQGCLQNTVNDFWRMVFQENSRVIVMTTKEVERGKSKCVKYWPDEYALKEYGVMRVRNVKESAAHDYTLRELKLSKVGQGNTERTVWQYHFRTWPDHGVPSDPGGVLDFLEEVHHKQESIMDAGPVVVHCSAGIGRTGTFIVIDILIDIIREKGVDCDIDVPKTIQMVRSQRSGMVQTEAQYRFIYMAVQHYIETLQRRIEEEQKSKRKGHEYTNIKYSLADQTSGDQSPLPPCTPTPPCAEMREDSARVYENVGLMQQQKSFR
The experiment in a line: SHP2 degradation in MV411 cells (Western blot, SHP-2 antibody). The assay is classed as cell-based. Conditions: MV 411 cells, 24 hours with compound, SHP2 protein level by Western blot. From the text: Reagent: complete DMEM medium, Gibco products. Fetal bovine serum, manufactured by ThermoFisher. Trypsin, manufactured by ThermoFisher. The SHP-2 antibody is produced by CST.
Cell line, MV 411, the blast cells of patients with bi-phenotypic B-myelomonocytic leukemia, was established by Rovera.
Measuring method: took the cells growing in the logarithmic phase, collected and suspended the cells in DMEM containing 10% fetal calf serum, gently blowed and beated the cells into single cell suspension by using a pipette, and counted the living cells under a microscope. […] Then cultured for 24 hours. All cells were collected and washed with PBS, lysed with RIPA lysate and collected into a 1.7 ml tube. […] metal bath for 5 minutes to fully denature the protein. 100V constant voltage electrophoresis after Western condensation and loading, stopped when bromophenol blue band reached the end point. The cellulose acetate membrane is transferred by a wet method, 45 minutes at a constant flow of 300-500 mA, 5% BSA is used for blocking for 1-2 hours at room temperature. Primary antibody of 1:500-1:8000 were used for incubation at 25° C. for 40 minutes and then washed three times. Secondary antibody was used for incubation for 15-40 min at room temperature. The proteins were detected using ultrasensitive ECL luminophores such as Enlight, using an X-Ray film automatic developing machine. See the statistical tables below, and FIGS. 1 and 2 for test results.
Effective Concentration of the Compound of the Invention in the Cell Line for Inhibiting SHP2
Background: A western blot detects proteins with antibodies after separation by electrophoresis.

One may read the DC50 as the concentration giving 50% degradation. Turning to `CCOc1cc(O)c(C(=O)/C=C/c2ccc(NCCOCCOCCOCCNc3cccc4c3C(=O)N(C3CCC(=O)NC3=O)C4=O)cc2Cl)cc1CN1CCC[C@H]1C(N)=O` (stereo partly shown) [TDC.2001], the DC50 stood at 128 nM. As for `CCOc1cc(O)c(C(=O)/C=C/c2ccc(NCCOCCOCCNc3cccc4c3C(=O)N(C3CCC(=O)NC3=O)C4=O)cc2Cl)cc1CN1CCNCC1` (stereo not shown) [TDC.2002], the DC50 was 336 nM. As to `CCOc1cc(O)c(C/C=C/c2ccc(N3CCN(C(=O)CCCCCCC(=O)Nc4cccc5c4C(=O)N(C4CCC(=O)NC4=O)C5=O)CC3)cc2Cl)cc1CN1CCC=C(n2c(=O)[nH]c3ccccc32)C1` (stereo not shown) [TDC.2003], the half-maximal degradation concentration (DC50) was 52 nM. As to `CCOc1cc(O)c(C/C=C/c2ccc(N3CCN(C(=O)CCCCCC(=O)Nc4cccc5c4C(=O)N(C4CCC(=O)NC4=O)C5=O)CC3)cc2Cl)cc1CN1CCCC(n2c(=O)[nH]c3ccccc32)C1` (stereo not shown) [TDC.2004], the DC50 is 120 nM. With `CCOc1cc(O)c(C(=O)/C=C/c2ccc(NCCOCCOCCNc3cccc4c3C(=O)N(C3CCC(=O)NC3=O)C4=O)cc2Cl)cc1CN1CCN(C)CC1` (stereo not shown) [TDC.2005], the DC50 was 321 nM. Consider `CCOc1cc(O)c(C(=O)/C=C/c2ccc(NCCOCCOCCNc3cccc4c3C(=O)N(C3CCC(=O)NC3=O)C4=O)cc2Cl)cc1CN1CCOCC1` (stereo not shown) [TDC.2006], for which the half-maximal degradation concentration (DC50) was 445 nM. With `CCOc1cc(O)c(C(=O)/C=C/c2ccc(NCCOCCOCCNc3cccc4c3C(=O)N(C3CCC(=O)NC3=O)C4=O)cc2Cl)cc1CN1CCC[C@H]1CO` (stereo partly shown) [TDC.2007], the DC50 was 125 nM. As for `CCOc1cc(O)c(C(=O)/C=C/c2ccc(NCCOCCOCCNc3cccc4c3C(=O)N(C3CCC(=O)NC3=O)C4=O)cc2Cl)cc1CN1CCC[C@H]1COC` (stereo partly shown) [TDC.2008], the DC50 came to 215 nM.

In the case of `CCOc1cc(O)c(C(=O)/C=C/c2ccc(N3CCN(CCOCCOCCOc4cccc5c4C(=O)N(C4CCC(=O)NC4=O)C5=O)CC3)cc2Cl)cc1CN1CCCC(n2c(=O)[nH]c3ccccc32)C1` (stereo not shown) [TDC.2009], the 50% degradation concentration (DC50) was 16 nM. For `CCOc1cc(O)c(C(=O)/C=C/c2ccc(N3CCN(CCOCCOCCOc4cccc5c4C(=O)N(C4CCC(=O)NC4=O)C5=O)CC3)cc2Cl)cc1CN1CCC=C(n2c(=O)[nH]c3ccccc32)C1` (stereo not shown) [TDC.2010], the half-maximal degradation concentration (DC50) is 81 nM. For `CCOc1cc(O)c(C(=O)/C=C/c2ccc(N3CCN(CCOCCOCCOc4cccc5c4C(=O)N(C4CCC(=O)NC4=O)C5=O)CC3)cc2Cl)cc1CN1CCC[C@H]1C(N)=O` (stereo partly shown) [TDC.2011], the DC50 amounted to 138 nM. With `CCOc1cc(O)c(C(=O)/C=C/c2ccc(N3CCN(CCOCCOCCOc4cccc5c4C(=O)N(C4CCC(=O)NC4=O)C5=O)CC3)cc2Cl)cc1CN1CCC[C@@H]1CO` (stereo partly shown) [TDC.2012], the 50% degradation concentration (DC50) was 10 nM. With `C=C/C(OCCOCCOCCN1CCN(c2ccc(/C=C/C(=O)c3cc(CN4CCC[C@H]4COC)c(OCC)cc3O)c(Cl)c2)CC1)=C1\C(=C)C(=O)N(C2CCC(=O)NC2=O)C1=O` (stereo partly shown) [TDC.2013], the DC50 was 203 nM. For the compound `CCOc1cc(O)c(C(=O)/C=C/c2ccc(N3CCN(CCOCCOCCOCCNc4cccc5c4C(=O)N(C4CCC(=O)NC4=O)C5=O)CC3)cc2Cl)cc1CN1CCCC(n2c(=O)[nH]c3ccccc32)C1` (stereo not shown) [TDC.2014], the DC50 stood at 102 nM. With `CCOc1cc(O)c(C(=O)/C=C/c2ccc(NCCOCCOCCCOCCNc3cccc4c3C(=O)N(C3CCC(=O)NC3=O)C4=O)cc2Cl)cc1CN1CCC=C(n2c(=O)[nH]c3ccccc32)C1` (stereo not shown) [TDC.2015], the half-maximal degradation concentration (DC50) came to 97 nM.

In the case of `CCOc1cc(O)c(C(=O)/C=C/c2ccc(NCCOCCOCCNc3cccc4c3C(=O)N(C3CCC(=O)N(C(C)OC(=O)CC)C3=O)C4=O)cc2Cl)cc1CN1CCN(C)CC1` (stereo not shown) [TDC.2016], the half-maximal degradation concentration (DC50) was 356 nM.

`CCOc1cc(O)c(C(=O)/C=C/c2ccc(NCCOCCOCCOc3cccc4c3C(=O)N(C3CCC(=O)NC3=O)C4=O)cc2Cl)cc1CN1CCC[C@H]1COC` (stereo partly shown) [TDC.2017]: the DC50 was found to be 183 nM. For the compound `CCOc1cc(O)c(C(=O)/C=C/c2ccc(NCCOCCOCCOCCOc3cccc4c3C(=O)N(C3CCC(=O)NC3=O)C4=O)cc2Cl)cc1CN1CCC[C@H]1C(N)=O` (stereo partly shown) [TDC.2018], the DC50 was determined as 142 nM. With `CCOc1cc(O)c(C(=O)/C=C/c2ccc(N3CCN(CCOCCOCCOc4cccc5c4C(=O)N(C4CCC(=O)N(COC(=O)C(C)(C)C)C4=O)C5=O)CC3)cc2Cl)cc1CN1CCCC(n2c(=O)[nH]c3ccccc32)C1` (stereo not shown) [TDC. 2020], the DC50 came out at 13 nM.

Values taken from US20240316207A1, “SHP2 INHIBITOR, PHARMACEUTICAL COMPOSITION COMPRISING SAME AND APPLICATION THEREOF” (BEIJING TIDE PHARMACEUTICAQL CO., LTD., priority 2021, published 2024).
